Source: patent US10208071B2, “Use of agonists of formyl peptide receptor 2 for treating ocular inflammatory diseases” (Allergan, Inc., priority 2013, dated 2019)

Legend:
FPR2 [1] = target: T1, FPR2 (Homo sapiens (Human), UniProt P25090); test: FPR2 Ga16-CHO EC50 (efficacy), Tables 1-3; type: cell-based; conditions: for FPR2 Ga16-CHO (efficacy): efficacy in parentheses
FPR2 [2] = target: T1, FPR2; test: FLIPR Ca+2 response, HEK-Gα16 cells stably expressing the human FPR2 receptor (Table 4); type: cell-based; conditions: for FPR2 (efficacy): efficacy in parentheses
Procedure, shortened: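 HEK-Gα16 cells stably expressing human FPR2, loaded with 2 μM Fluo-4 in HBSS/20 mM HEPES for 40 min at 37° C., then washed. Ligands added in HBSS/Hepes and Ca+2 responses recorded on FLIPR in relative fluorescence units.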

T1 sequence (P25090 whole entry): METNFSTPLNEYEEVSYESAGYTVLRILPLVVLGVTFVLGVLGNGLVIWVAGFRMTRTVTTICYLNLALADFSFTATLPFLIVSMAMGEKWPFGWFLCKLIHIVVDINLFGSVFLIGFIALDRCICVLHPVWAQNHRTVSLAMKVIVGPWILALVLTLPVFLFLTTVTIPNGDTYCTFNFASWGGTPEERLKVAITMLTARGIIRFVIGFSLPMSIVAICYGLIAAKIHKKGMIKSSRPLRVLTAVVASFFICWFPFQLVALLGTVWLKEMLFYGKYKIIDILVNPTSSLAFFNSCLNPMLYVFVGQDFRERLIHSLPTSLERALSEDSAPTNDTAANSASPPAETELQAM

EC50 (FPR2 [1]) [nM] | FPR2 Ga16-CHO (efficacy) (FPR2 [1]) | FPR2 (efficacy) (FPR2 [2]) | EC50 (FPR2 [2]) [nM] | Compound
258 | nM (0.94) |  |  | CC1(CCc2ccccc2)NC(=O)N(NC(=O)Nc2ccccc2F)C1=O (stereo not shown) [1-(2-fluorophenyl)-3-[4-methyl-2,5-dioxo-4-(2-phenylethyl)imidazolidin-1-yl]urea]
49 | nM (0.98) |  |  | O=C(Nc1ccc(Cl)cc1)NN1C(=O)NC2(CCCCC2)C1=O [1-(4-chlorophenyl)-3-(2,4-dioxo-1,3-diazaspiro[4,5]decan-3-yl) urea]
157 | nM (0.96) |  |  | CCC1(C)NC(=O)N(NC(=O)Nc2ccc(Cl)cc2)C1=O (stereo not shown) [1-(4-chlorophenyl)-3-(4-ethyl-4-methyl-2,5-dioxoimidazolidin-1-yl)urea]
363 | nM (0.91) |  |  | Cc1ccc(NC(=O)NN2C(=O)NC3(CCC(C)CC3)C2=O)cc1 (stereo not shown) [1-(8-methyl-2,4-dioxo-1,3-diazaspiro[4,5]decan-3-yl)-3-(p-tolypurea]
223 | nM (1.0) |  |  | CC1(CCc2ccccc2)NC(=O)N(NC(=O)Nc2ccccc2)C1=O (stereo not shown) [1-[4-methyl-2,5-dioxo-4-(2-phenylethyl)imidazolidin-1-yl]-3-phenylurea]
 |  | nM (0.91) | 2 | CC(C)C[C@H](NC(=O)Nc1ccc(Br)cc1)C(=O)NCS(=O)(=O)O [Compound 127, {[(2S)-2-{[(4-bromophenyl)carbamoyl]amino}-4-methylpentanoyl]amino} methanesulfonic acid]
 |  | nM (0.92) | 16.8 | CSc1ccc(NC(=O)N[C@@H](CC(C)C)C(=O)O)cc1 [Compound 128, (2S)-4-methyl-2-({[4-(methylsulfanyl)phenyl]carbamoyl}amino)pentanoic acid]
 |  | nM (1.0) | 3 | CSc1ccc(NC(=O)N[C@@H](CC(C)C)C(=O)NCC(=O)O)cc1 [Compound 130, {[(2S)-4-methyl-2-({[4-(methylsulfanyl)phenyl]carbamoyl}amino)pentanoyl]amino} acetic acid]
 |  | nM (1.0) |  | CC(C)C[C@H](NC(=O)Nc1ccc(Br)cc1)C(=O)NCP(=O)(OC(C)C)OC(C)C [Compound 131, dipropan-2-yl ({[(2S)-2-{[(4-bromophenyl)carbamoyl]amino}-4-methylpentanoyl]amino}methyl)phosphonate]
 |  | nM (0.86) | 16.2 | CC(C)C1(CO)NC(=O)N(NC(=O)Nc2ccc(Br)cc2)C1=O (stereo not shown) [Compound 132, 1-(4-bromophenyl)-3-[4-(hydroxymethyl)-2,5-dioxo-4-(propan-2-yl)imidazolidin-1-yl]urea]
 |  | nM (1.0) | 2.7 | CC(C)C1(CC(=O)NCCO)NC(=O)N(NC(=O)Nc2ccc(Br)cc2)C1=O (stereo not shown) [Compound 133, 2-[1-{[(4-bromophenyl)carbamoyl]amino}-2,5-dioxo-4-(propan-2-yl)imidazolidin-4-yl]-N-(2-hydroxyethyl)acetamide]
 |  | nM (0.96) | 3.7 | CC(C)C[C@H](NC(=O)Nc1ccc(C(F)(F)F)cc1)C(=O)NCc1nnn[nH]1 [Compound 136, (2S)-4-methyl-N-(1H-tetrazol-5-ylmethyl)-2-({[4-(trifluoromethyl)phenyl]carbamoyl}amino)pentanamide]
 |  | nM (0.92) | 2.5 | CC(C)C[C@H](NC(=O)Nc1ccc(C(F)(F)F)cc1)C(=O)NC(C)(C)C(=O)O [Compound 139, 2-methyl-2-{[(2S)-4-methyl-2-({[4-(trifluoromethyl)phenyl]carbamoyl}amino)pentanoyl]amino} propanoic acid]
 |  | nM (0.92) | 13.8 | CC(C)C1(CC(=O)NC(CO)CO)NC(=O)N(NC(=O)Nc2ccc(Br)cc2)C1=O (stereo not shown) [Compound 142, 2-[1-{[(4-bromophenyl)carbamoyl]amino}-2,5-dioxo-4-(propan-2-yl)imidazolidin-4-yl]-N-(1,3-dihydroxypropan-2-yl)acetamide]
 |  | nM (1.0) | 17.2 | CCC1(CCc2ccccc2C(=O)O)NC(=O)N(NC(=O)Nc2ccc(Br)cc2)C1=O (stereo not shown) [Compound 143, 2-[2-(1-{[(4-bromophenyl)carbamoyl]amino}-4-ethyl-2,5-dioxoimidazolidin-4-yl)ethyl]benzoic acid]
 |  | nM (0.91) | 6.3 | CSCC[C@H](NC(=O)Nc1ccc(Br)cc1)C(=O)NCC(=O)O [Compound 144, {[(2S)-2-{[(4-bromophenyl)carbamoyl]amino}-4-(methylsulfanyl)butanoyl]amino} acetic acid]
 |  | nM (1.0) | 1 | CC(C)C1(CC(=O)NCCC(=O)O)NC(=O)N(NC(=O)Nc2ccc(Br)cc2F)C1=O (stereo not shown) [Compound 145, 3-({[-{[(4-bromo-2-fluorophenyl)carbamoyl]amino}-2,5-dioxo-4-(propan-2-yl)imidazolidin-4-yl]acetyl}amino)propanoic acid]
 |  | nM (1.0) | 11.1 | CCC1(CCc2ccccc2C(=O)O)NC(=O)N(NC(=O)Nc2ccc(Br)cc2F)C1=O (stereo not shown) [Compound 146, 2-[2-(1-{[(4-bromo-2-fluorophenyl)carbamoyl]amino}-4-ethyl-2,5-dioxoimidazolidin-4-yl)ethyl]benzoic acid]
 |  | nM (0.99) | 3.9 | CC(C)C1(CC(=O)NCCC(=O)O)NC(=O)N(NC(=O)Nc2ccc(Br)cc2)C1=O (stereo not shown) [Compound 147, 3-({[1-{[(4-bromophenyl)carbamoyl]amino}-2,5-dioxo-4-(propan-2-yl)imidazolidin-4-yl]acetyl}amino)propanoic acid]
 |  | nM (0.98) | 6.9 | CC(C)C1(CC(=O)NCCO)NC(=O)N(NC(=O)Nc2ccc(Br)cc2F)C1=O (stereo not shown) [Compound 148, 2-[1-{[(4-bromo-2-fluorophenyl)carbamoyl]amino}-2,5-dioxo-4-(propan-2-yl)imidazolidin-4-yl]-N-(2-hydroxyethyl)acetamide]
 |  | nM (0.94) | 6.6 | CCOC(=O)CCC1(C(C)C)NC(=O)N(NC(=O)Nc2ccc(Br)cc2)C1=O (stereo not shown) [Compound 149, ethyl 3-[1-{[(4-bromophenyl)carbamoyl]amino}-2,5-dioxo-4-(propan-2-yl)imidazolidin-4-yl]propanoate]
 |  | nM (0.98) | 1.4 | O=C(O)CNC(=O)C(Cc1c[nH]c2ccccc12)NC(=O)Nc1ccc(Br)cc1 (stereo not shown) [Compound 150, {[2-{[(4-bromophenyl)carbamoyl]amino}-3-(1H-indol-3-yl)propanoyl]amino}acetic acid]
 |  | nM (1.0) | 5.8 | CC(C)C1(CCc2ccccc2C(=O)O)NC(=O)N(NC(=O)Nc2ccc(Br)cc2)C1=O (stereo not shown) [Compound 151, 2-{2-[1-{[(4-bromophenyl)carbamoyl]amino}-2,5-dioxo-4-(propan-2-yl)imidazolidin-4-yl]ethyl}benzoic acid]
 |  | nM (0.99) | 12 | CCOC(=O)C1CCC2(CC1)NC(=O)N(NC(=O)Nc1ccc(Br)cc1)C2=O (stereo not shown) [Compound 153, ethyl 3-{[(4-bromophenyl)carbamoyl]amino}-2,4-dioxo-1,3-diazaspiro[4.5]decane-8-carboxylate]
 |  | nM (0.85) | 12 | CC(C)C[C@H](NC(=O)Nc1ccc(Br)cc1)C(=O)N(C)CC(=O)OC(C)(C)C [Compound 154, tert-butyl {[(2S)-2-{[(4-bromophenyl)carbamoyl]amino}-4-methylpentanoyl](methyl)amino} acetate]
 |  | nM (1.0) | 1 | CC(C)C[C@H](NC(=O)Nc1ccc(Br)cc1)C(=O)N(C)CC(=O)O [Compound 155, {[(2S)-2-{[(4-bromophenyl)carbamoyl]amino}-4-methylpentanoyl](methyl)amino} acetic acid]
 |  | nM (0.99) | 1.9 | CC(C)C[C@H](NC(=O)Nc1ccc(C(F)(F)F)cc1)C(=O)NCS(=O)(=O)O [Compound 237, {[(2S)-4-methyl-2-({[4-(trifluoromethyl)phenyl]carbamoyl}amino)pentanoyl]amino} methanesulfonic acid]

Compound | EC50 (FPR2 [1]) [nM] | FPR2 Ga16-CHO (efficacy) (FPR2 [1]) | FPR2 (efficacy) (FPR2 [2]) | EC50 (FPR2 [2]) [nM]
CCOP(=O)(O)CNC(=O)[C@H](Cc1ccccc1)NC(=O)Nc1ccc(Br)cc1 [Compound 126, ethyl hydrogen ({[(2S)-2-{[(4-bromophenyl)carbamoyl]amino}-3-phenylpropanoyl]amino}methyl)phosphonate] |  |  | nM (1.0) | 
CCOP(=O)(CNC(=O)[C@H](CC(C)C)NC(=O)Nc1ccc(C(F)(F)F)cc1)OCC [Compound 134, diethyl ({[(2S)-4-methyl-2-({[4-(trifluoromethyl)phenyl]carbamoyl}amino)pentanoyl]amino}methyl)phosphonate] |  |  | nM (0.97) | 5.5
CCOP(=O)(O)CNC(=O)[C@H](CC(C)C)NC(=O)Nc1ccc(C(F)(F)F)cc1 [Compound 135, ethyl hydrogen ({[(2S)-4-methyl-2-({[4-(trifluoromethyl)phenyl]carbamoyl}amino)pentanoyl]amino}methyl)phosphonate] |  |  | nM (0.91) | 1.9
CCOP(=O)(CNC(=O)[C@H](CC(C)C)NC(=O)Nc1ccc(SC)cc1)OCC [Compound 138, diethyl ({[(2S)-4-methyl-2-({[4-(methylsulfanyl)phenyl]carbamoyl}amino)pentanoyl]amino}methyl)phosphonate] |  |  | nM (0.91) | 3.5
CCC1(CCc2ccccc2C(=O)OC)NC(=O)N(NC(=O)Nc2ccc(Br)cc2)C1=O (stereo not shown) [Compound 141, methyl 2-[2-(1-{[(4-bromophenyl)carbamoyl]amino}-4-ethyl-2,5-dioxoimidazolidin-4-yl)ethyl]benzoate] |  |  | nM (0.92) | 10.3
CCOP(=O)(CCNC(=O)CC1(C(C)C)NC(=O)N(NC(=O)Nc2ccc(Br)cc2)C1=O)OCC (stereo not shown) [Compound 152, diethyl [2-({[1-{[(4-bromophenyl)carbamoyl]amino}-2,5-dioxo-4-(propan-2-yl)imidazolidin-4-yl]acetyl}amino)ethyl] phosphonate] |  |  | nM (1.0) | 11
